Laboratory results published in PubChem BioAssay AID652090 (Broad Institute, 2013).

How the values were obtained:
Assay in all cases: cellular target proteins captured by immobilized compound – cell lysate, INS-1E, SILAC competition, mass spectrometry, mechanism study for beta-cell protection project, late-stage follow-up (AID 652090)
[1] = test system: Ipo9; details: INS-1E SILAC affinity pulldown, competition MS ratio
[2] = test system: Lrpprc; details: INS-1E SILAC affinity pulldown, competition MS ratio, enrichment significance, stronger effect = lower value
[3] = target: Retsat (UniProt Q8VHE9); details: INS-1E SILAC affinity pulldown, competition MS ratio, stronger effect = higher value
Chain of Retsat (UniProt Q8VHE9) (Q8VHE9 whole entry, looked up): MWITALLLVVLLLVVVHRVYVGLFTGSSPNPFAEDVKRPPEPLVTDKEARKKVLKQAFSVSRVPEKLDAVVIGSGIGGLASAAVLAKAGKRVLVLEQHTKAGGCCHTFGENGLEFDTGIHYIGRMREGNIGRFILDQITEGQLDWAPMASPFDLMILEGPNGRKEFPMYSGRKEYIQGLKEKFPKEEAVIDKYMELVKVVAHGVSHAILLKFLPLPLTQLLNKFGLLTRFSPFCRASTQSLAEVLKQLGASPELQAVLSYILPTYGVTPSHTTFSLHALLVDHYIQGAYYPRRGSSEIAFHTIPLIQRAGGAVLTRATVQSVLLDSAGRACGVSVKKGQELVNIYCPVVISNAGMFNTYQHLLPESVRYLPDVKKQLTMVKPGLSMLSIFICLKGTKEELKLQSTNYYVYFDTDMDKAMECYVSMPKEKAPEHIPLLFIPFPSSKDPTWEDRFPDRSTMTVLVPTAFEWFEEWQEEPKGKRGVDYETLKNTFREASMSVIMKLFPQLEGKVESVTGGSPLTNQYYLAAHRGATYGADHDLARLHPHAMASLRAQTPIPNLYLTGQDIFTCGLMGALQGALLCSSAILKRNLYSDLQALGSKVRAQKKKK

[4] = test system: Cand2; details: INS-1E SILAC affinity pulldown, competition MS ratio, enrichment significance, stronger effect = lower value
[5] = test system: Tbc1d15; details: INS-1E SILAC affinity pulldown, competition MS ratio
[6] = test system: Ap3b2; details: INS-1E SILAC affinity pulldown, competition MS ratio
[7] = test system: Cand1; details: INS-1E SILAC affinity pulldown, competition MS ratio
[8] = test system: Xpo1; details: INS-1E SILAC affinity pulldown, competition MS ratio, enrichment significance, stronger effect = lower value
[9] = test system: Ipo4; details: INS-1E SILAC affinity pulldown, competition MS ratio
[10] = target: Mcm6 (UniProt Q62724); details: INS-1E SILAC affinity pulldown, competition MS ratio, stronger effect = higher value
Chain of Mcm6 (UniProt Q62724) (Q62724 whole entry, looked up): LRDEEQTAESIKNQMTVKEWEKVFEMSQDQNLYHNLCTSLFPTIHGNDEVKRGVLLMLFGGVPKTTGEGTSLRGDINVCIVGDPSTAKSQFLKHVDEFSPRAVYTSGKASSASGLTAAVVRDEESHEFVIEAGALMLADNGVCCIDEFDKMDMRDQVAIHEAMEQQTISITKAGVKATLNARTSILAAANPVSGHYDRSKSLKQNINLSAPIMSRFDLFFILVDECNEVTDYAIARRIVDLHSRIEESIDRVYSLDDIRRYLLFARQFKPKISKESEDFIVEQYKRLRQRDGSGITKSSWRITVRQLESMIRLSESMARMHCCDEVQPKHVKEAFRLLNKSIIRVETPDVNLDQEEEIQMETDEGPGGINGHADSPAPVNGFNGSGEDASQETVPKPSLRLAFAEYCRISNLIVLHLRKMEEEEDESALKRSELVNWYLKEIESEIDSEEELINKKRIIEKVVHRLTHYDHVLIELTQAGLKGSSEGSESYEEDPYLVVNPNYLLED

[11] = target: Cand2 (UniProt Q9R0L4); details: INS-1E SILAC affinity pulldown, competition MS ratio, stronger effect = higher value
Chain of Cand2 (UniProt Q9R0L4) (Q9R0L4 whole entry, looked up): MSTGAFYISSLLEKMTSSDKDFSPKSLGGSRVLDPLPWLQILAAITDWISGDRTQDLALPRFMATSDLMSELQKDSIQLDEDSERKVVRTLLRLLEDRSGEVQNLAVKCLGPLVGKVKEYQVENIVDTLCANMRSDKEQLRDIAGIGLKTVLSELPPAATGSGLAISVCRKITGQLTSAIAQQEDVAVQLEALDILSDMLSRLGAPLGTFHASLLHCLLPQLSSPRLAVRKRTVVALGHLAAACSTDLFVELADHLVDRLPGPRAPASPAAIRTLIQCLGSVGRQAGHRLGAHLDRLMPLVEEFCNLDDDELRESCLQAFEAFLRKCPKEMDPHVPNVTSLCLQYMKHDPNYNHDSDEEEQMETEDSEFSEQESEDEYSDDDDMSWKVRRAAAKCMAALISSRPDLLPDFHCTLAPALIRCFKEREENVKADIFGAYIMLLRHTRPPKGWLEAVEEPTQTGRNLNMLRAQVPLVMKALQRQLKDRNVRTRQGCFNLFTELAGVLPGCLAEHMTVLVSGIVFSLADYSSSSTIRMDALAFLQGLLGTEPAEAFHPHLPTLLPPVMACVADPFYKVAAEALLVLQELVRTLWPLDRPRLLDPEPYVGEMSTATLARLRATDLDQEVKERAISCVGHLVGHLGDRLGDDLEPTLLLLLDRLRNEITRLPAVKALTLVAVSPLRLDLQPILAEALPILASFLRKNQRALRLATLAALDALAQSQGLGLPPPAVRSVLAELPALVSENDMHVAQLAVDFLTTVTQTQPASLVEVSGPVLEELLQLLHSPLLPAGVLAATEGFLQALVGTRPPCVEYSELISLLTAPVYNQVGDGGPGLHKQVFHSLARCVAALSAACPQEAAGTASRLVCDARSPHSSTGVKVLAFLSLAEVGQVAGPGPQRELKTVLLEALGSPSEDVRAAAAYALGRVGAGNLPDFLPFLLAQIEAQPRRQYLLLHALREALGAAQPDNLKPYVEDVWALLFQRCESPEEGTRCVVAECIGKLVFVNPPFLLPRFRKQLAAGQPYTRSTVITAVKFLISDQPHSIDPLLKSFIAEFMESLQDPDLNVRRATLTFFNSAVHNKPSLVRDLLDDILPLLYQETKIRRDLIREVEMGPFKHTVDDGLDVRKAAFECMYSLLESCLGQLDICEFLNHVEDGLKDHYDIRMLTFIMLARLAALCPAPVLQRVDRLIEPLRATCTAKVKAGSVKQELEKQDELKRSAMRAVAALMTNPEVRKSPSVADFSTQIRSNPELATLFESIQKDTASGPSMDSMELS

[12] = target: Xpo1 (UniProt Q80U96); details: INS-1E SILAC affinity pulldown, competition MS ratio, stronger effect = higher value
Chain of Xpo1 (UniProt Q80U96) (Q80U96 whole entry, looked up): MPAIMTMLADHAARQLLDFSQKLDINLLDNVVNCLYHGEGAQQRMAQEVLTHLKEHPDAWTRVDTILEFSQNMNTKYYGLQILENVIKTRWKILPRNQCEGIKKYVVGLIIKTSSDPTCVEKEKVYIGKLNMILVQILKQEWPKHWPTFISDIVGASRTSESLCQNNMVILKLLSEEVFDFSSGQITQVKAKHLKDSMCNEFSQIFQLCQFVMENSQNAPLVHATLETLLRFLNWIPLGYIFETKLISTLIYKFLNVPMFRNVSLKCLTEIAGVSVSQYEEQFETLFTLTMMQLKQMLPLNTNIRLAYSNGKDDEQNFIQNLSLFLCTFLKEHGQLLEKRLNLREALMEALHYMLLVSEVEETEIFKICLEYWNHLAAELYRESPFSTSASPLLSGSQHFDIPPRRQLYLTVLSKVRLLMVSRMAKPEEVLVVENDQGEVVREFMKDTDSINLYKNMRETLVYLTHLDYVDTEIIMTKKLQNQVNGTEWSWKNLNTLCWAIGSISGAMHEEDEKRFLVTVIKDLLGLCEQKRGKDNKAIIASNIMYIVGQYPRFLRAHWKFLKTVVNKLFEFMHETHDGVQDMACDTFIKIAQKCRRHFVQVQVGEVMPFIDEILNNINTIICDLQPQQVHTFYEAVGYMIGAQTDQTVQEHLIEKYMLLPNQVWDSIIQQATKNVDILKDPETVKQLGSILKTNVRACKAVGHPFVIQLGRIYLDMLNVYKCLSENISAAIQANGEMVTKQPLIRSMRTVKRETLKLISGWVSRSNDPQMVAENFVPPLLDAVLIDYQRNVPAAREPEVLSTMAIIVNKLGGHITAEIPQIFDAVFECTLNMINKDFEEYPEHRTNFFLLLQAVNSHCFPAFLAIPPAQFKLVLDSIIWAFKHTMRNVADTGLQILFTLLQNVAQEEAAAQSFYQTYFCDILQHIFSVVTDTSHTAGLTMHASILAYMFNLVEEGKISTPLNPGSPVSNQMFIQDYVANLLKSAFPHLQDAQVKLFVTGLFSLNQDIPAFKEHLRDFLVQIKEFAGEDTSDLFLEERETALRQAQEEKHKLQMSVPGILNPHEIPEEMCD

[13] = test system: Mcm6; details: INS-1E SILAC affinity pulldown, competition MS ratio, enrichment significance, stronger effect = lower value
[14] = test system: Ahcy; details: INS-1E SILAC affinity pulldown, competition MS ratio, enrichment significance, stronger effect = lower value
[15] = test system: LOC303448; details: INS-1E SILAC affinity pulldown, competition MS ratio
[16] = test system: Blvrb; details: INS-1E SILAC affinity pulldown, competition MS ratio
[17] = target: Glyceraldehyde-3-phosphate dehydrogenase (Rattus norvegicus) (UniProt P04797); details: INS-1E SILAC affinity pulldown, competition MS ratio; Gapdh; stronger effect = higher value
Chain of Glyceraldehyde-3-phosphate dehydrogenase (Rattus norvegicus) (P04797 whole entry, looked up): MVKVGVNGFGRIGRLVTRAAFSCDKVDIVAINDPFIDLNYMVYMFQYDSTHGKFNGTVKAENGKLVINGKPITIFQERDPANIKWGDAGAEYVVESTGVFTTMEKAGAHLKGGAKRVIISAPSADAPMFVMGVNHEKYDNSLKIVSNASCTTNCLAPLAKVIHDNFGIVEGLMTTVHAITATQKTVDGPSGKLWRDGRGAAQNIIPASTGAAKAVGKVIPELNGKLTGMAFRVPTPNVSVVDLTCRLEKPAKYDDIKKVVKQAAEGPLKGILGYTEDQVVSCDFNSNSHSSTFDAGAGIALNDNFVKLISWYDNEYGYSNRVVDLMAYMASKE

[18] = target: Timm44 (UniProt O35094); details: INS-1E SILAC affinity pulldown, competition MS ratio, stronger effect = higher value
Chain of Timm44 (UniProt O35094) (O35094 whole entry, looked up): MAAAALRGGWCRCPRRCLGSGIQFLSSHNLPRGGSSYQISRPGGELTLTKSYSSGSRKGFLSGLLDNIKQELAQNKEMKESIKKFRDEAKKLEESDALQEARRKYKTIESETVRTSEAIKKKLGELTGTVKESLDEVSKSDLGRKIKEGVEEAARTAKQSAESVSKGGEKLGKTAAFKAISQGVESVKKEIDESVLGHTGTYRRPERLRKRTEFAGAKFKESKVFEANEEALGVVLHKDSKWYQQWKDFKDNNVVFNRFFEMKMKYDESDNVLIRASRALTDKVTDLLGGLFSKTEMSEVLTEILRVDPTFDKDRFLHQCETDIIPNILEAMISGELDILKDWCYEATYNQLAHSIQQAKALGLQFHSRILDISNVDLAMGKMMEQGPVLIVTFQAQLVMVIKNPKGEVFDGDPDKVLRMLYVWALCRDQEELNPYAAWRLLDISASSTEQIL

[19] = test system: Gapdh; details: INS-1E SILAC affinity pulldown, competition MS ratio, enrichment significance, stronger effect = lower value
[20] = target: Adenosylhomocysteinase (Rattus norvegicus) (UniProt P10760); details: INS-1E SILAC affinity pulldown, competition MS ratio; Ahcy; stronger effect = higher value
Chain of Adenosylhomocysteinase (Rattus norvegicus) (P10760 whole entry, looked up): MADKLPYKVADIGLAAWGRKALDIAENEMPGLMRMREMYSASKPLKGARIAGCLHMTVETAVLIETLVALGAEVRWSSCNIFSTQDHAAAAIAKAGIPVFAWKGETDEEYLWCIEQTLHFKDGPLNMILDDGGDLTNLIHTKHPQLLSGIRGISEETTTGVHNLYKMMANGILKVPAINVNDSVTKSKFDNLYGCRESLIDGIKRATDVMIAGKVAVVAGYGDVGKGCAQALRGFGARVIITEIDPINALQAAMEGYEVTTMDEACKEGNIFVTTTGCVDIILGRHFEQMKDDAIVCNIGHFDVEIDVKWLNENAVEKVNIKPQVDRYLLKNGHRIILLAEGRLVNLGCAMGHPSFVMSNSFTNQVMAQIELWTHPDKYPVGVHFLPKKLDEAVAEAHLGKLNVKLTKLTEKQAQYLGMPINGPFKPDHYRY

[21] = test system: RGD1309903; details: INS-1E SILAC affinity pulldown, competition MS ratio
[22] = test system: Usp9x; details: INS-1E SILAC affinity pulldown, competition MS ratio
[23] = test system: Retsat; details: INS-1E SILAC affinity pulldown, competition MS ratio, enrichment significance, stronger effect = lower value
[24] = target: Lrpprc (UniProt Q5SGE0); details: INS-1E SILAC affinity pulldown, competition MS ratio, stronger effect = higher value
[25] = test system: Timm44; details: INS-1E SILAC affinity pulldown, competition MS ratio, enrichment significance, stronger effect = lower value
[26] = enrichment significance, stronger effect = lower value

How did the p-value [1, 26] turn out when `C[C@@H]1CN([C@@H](C)CO)C(=O)c2cccc(NC(=O)Nc3cccc4ccccc34)c2O[C@H]1CN(C)S(=O)(=O)c1ccc2c(c1)OCCO2` was run?
Its p-value is 0.00514.

What about the log2 SILAC competition ratio ([1]; stronger effect = higher value) of the same molecule?
The log2 SILAC competition ratio was 0.58.

And the p-value [2]?
The p-value was 0.00102.

What about the log2 SILAC competition ratio [3] of the same molecule?
Its log2 SILAC competition ratio is 0.58.

What about the p-value [4] of the same molecule?
Its p-value is 0.0511.

And the p-value [5, 26]?
The p-value was 6.97e-05.

And the log2 SILAC competition ratio ([5]; stronger effect = higher value)?
Its log2 SILAC competition ratio is 0.72.

And the p-value [6, 26]?
Its p-value is 1.01e-06.

What about the log2 SILAC competition ratio ([6]; stronger effect = higher value) of the same molecule?
Its log2 SILAC competition ratio is 0.84.

What about the p-value [7, 26] of the same molecule?
The p-value was 7.49e-06.

And the log2 SILAC competition ratio ([7]; stronger effect = higher value)?
The log2 SILAC competition ratio was 0.78.

And the p-value [8]?
The p-value was 0.0109.

And the p-value [9, 26]?
Its p-value is 0.000164.

And the log2 SILAC competition ratio ([9]; stronger effect = higher value)?
Its log2 SILAC competition ratio is 0.7.

And the log2 SILAC competition ratio [10]?
Its log2 SILAC competition ratio is 1.63.

And the log2 SILAC competition ratio [11]?
The log2 SILAC competition ratio was 0.496.

What about the log2 SILAC competition ratio [12] of the same molecule?
Its log2 SILAC competition ratio is 0.56.

And the p-value [13]?
The p-value was 2.29e-26.

What about the p-value [14] of the same molecule?
The p-value was 8.65e-05.

What about the p-value [15, 26] of the same molecule?
Its p-value is 3.33e-05.

And the log2 SILAC competition ratio ([15]; stronger effect = higher value)?
Its log2 SILAC competition ratio is 0.74.

And the p-value [16, 26]?
Its p-value is 7.19e-23.

And the log2 SILAC competition ratio ([16]; stronger effect = higher value)?
Its log2 SILAC competition ratio is 1.52.

And the log2 SILAC competition ratio [17]?
Its log2 SILAC competition ratio is 0.72.

And the log2 SILAC competition ratio [18]?
Its log2 SILAC competition ratio is 0.52.

What about the p-value [19] of the same molecule?
Its p-value is 7.85e-05.

And the log2 SILAC competition ratio [20]?
The log2 SILAC competition ratio was 0.72.

And the p-value [21, 26]?
Its p-value is 0.000418.

What about the log2 SILAC competition ratio ([21]; stronger effect = higher value) of the same molecule?
Its log2 SILAC competition ratio is 0.67.

What about the p-value [22, 26] of the same molecule?
The p-value was 2.07e-09.

And the log2 SILAC competition ratio ([22]; stronger effect = higher value)?
Its log2 SILAC competition ratio is 0.98.

And the p-value [23]?
Its p-value is 0.00538.

And the log2 SILAC competition ratio [24]?
Its log2 SILAC competition ratio is 0.64.

What about the p-value [25] of the same molecule?
The p-value was 0.0266.
